This series can be described thus: gradient 5% acetonitrile 3 min, to 50% in 2 min, to 85% in 15 min, held 3 min, 100 µL/min. Conditions: column: Zorbax Extend-C18 2.1 x 50 mm; eluents: water / acetonitrile, 0.1% formic acid. The gist of the method: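 Values are retention times taken from adduct peaks that software picked and an analyst inspected. The pure standards were run as mixtures of ~100 molecules on HPLC linked to a quadrupole time-of-flight mass spectrometer, in positive and negative ionization mode. A Zorbax Extend-C18 column (2.1 × 50 mm, 1.8 μm) was used at 100 μL/min with water and acetonitrile, each including 0.1% formic acid.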
For the compound `COc1ccc(C2Cn3nnc(-c4nc(-c5ccc(F)c(Br)c5)no4)c3CO2)cc1` (centres undefined), the RP-LC retention time stood at 1180 s.
Then `O=C(Cn1c2ccccc2c2ncn(Cc3nc(C4CC4)no3)c(=O)c21)NC1CCCCC1`, with 834 s.
Regarding `CCCNc1cc(N2CCC(CCC(=O)NCc3ccc(Cl)cc3)CC2)ncn1`, the RP-LC retention time amounted to 718 s.
Then `CCC(=O)Nc1ccc(CCc2nc3ccc(C(=O)NCc4ccc(C)o4)cc3[nH]2)cc1`, with 638 s.
As to `O=C(NCCc1cccs1)C1CCCN(C(=O)c2cccn2-c2cccnc2)C1` (centres undefined), the RP-LC retention time was 848 s.
In the case of `CCOC(=O)c1nc(NCc2ccccc2OCC)c2c(C)noc2n1`, the RP-LC retention time was found to be 988 s.
The figure for `COc1ccc(N2C(=O)N[C@H]3C[C@@]2(C)Oc2c(OC)cccc23)c(OC)c1` is 712 s; for `CCc1nc(OCC(=O)NCCOC)c2c(-c3ccc(F)cc3)noc2n1` it is 845 s; for `CN1CCN(c2ccc(CNC(=O)CN3CCN(Cc4ccc(F)cc4)C3=O)cc2)CC1` it is 599 s.
The compound `COc1ccc(NC(=O)NCC(c2cccnc2)c2cn(C)c3ccccc23)c(OC)c1` (centres undefined) registered an RP-LC retention time of 697 s.
Take `CC1CCC(NC(=O)Cn2nc(C(=O)N3CCCC3)c3ccccc32)CC1` (centres undefined): the RP-LC retention time stood at 892 s.
On to `CCN1CCN(C(=O)C2Cn3cccc3C(=O)N2CC(C)C)CC1` (centres undefined), for which the RP-LC retention time came to 573 s.
In turn, `O=C(CCC1CCN(c2cc(NC3CC3)ncn2)CC1)N1CCN(c2ccccn2)CC1` yielded an RP-LC retention time of 536 s.
Turning to `O=C(NCc1ccc2c(c1)OCO2)c1c(O)c2cccnc2n(-c2ccccc2)c1=O`, the RP-LC retention time came out at 1120 s.
The figure for `Cc1ccc(S(=O)(=O)N2CCC(n3c(-c4ccco4)nc4cccnc43)C2)cc1F` (centres undefined) is 954 s; for `COc1ccccc1N(CN1CCCC1=O)C(=O)COc1ccccc1` it is 699 s.
As for `Cc1nc(-c2ccc3c(c2)CCN3C(=O)c2cccc(F)c2)cs1`, the RP-LC retention time amounted to 992 s.
The compound `Cn1c(=O)c(N2CCCC(C(=O)N3CCN(Cc4ccc5c(c4)OCO5)CC3)C2)nc2ccccc21` (centres undefined) showed an RP-LC retention time of 674 s.
`O=C(c1ccsc1)N1CCCCC1c1nncn1CC1CC1` (centres undefined) returned an RP-LC retention time of 681 s.
`Cc1ccc(-c2coc(-c3ccc(NC(=O)c4cccs4)cc3)n2)cc1` came in with an RP-LC retention time of 1170 s.
Compound `Cc1noc(-c2nc(Cc3ccc(F)cc3)no2)n1` showed an RP-LC retention time of 953 s.
The compound `CCc1nnc2cc(N3CCN(C(=O)Nc4ccccc4Cl)CC3)cnn12` displayed an RP-LC retention time of 548 s.
`O=C1CCN([C@@H]2O[C@H](CO)[C@@H](O)[C@H]2O)C(=O)N1` showed an RP-LC retention time of 933 s.
In the case of `COc1ccc(OC)c(NC(=O)N2CCCC(C)(C(=O)NCc3ccc(C)cc3)C2)c1` (centres undefined), the RP-LC retention time stood at 932 s.
For the compound `Cc1cc2[nH]c(C(=O)Nc3ccc(Cl)cc3C)c(CN3CCOCC3)c2s1`, the RP-LC retention time is 738 s.
The compound `CCN1CCCC1CNC(=O)Cn1c2ccccc2c2cnn(C)c(=O)c21` (centres undefined) registered an RP-LC retention time of 554 s.
Then `Cc1cc(C(=O)N2CC(C(=O)NCCc3ccc(F)cc3)C2)no1`, with 680 s; and `CCc1noc(NC(C)=O)c1-c1ccc(C)c(S(=O)(=O)NCc2ccc3c(c2)OCO3)c1`, with 814 s; and `CCOc1ccccc1NC(=O)C1CCCN(c2nc3c(s2)c(C)nn3-c2ccc(C)cc2)C1` (centres undefined), with 1360 s.
`COc1ccccc1-c1noc(Cn2ncn3nc(-c4cc(C)ccc4C)cc3c2=O)n1` registered an RP-LC retention time of 1100 s.
As for `CCN1C(=O)COc2ccc(-c3csc(NC(C)=O)n3)cc21`, the RP-LC retention time came to 719 s.
Then `COCCn1cc(CCNC(=O)Nc2ccccc2Br)c2cccnc21`, with 763 s; and `CCOC(=O)CNC(=O)NCc1ccc2ncccc2c1`, with 596 s; and `Cc1cccc2sc(NC(=O)Cc3csc(Nc4ccc(Cl)cn4)n3)nc12`, with 1140 s.
Consider `COc1ccc(Cl)cc1NS(=O)(=O)c1cc(-c2cc(C(F)(F)F)on2)sc1C`, for which the RP-LC retention time was determined as 1220 s.
The figure for `CC(C)CN1C(=O)c2ccccc2C(C(=O)NCCCN2CCN(C)CC2)C1c1cccs1` (centres undefined) is 607 s; for `CCC(=O)N1CCc2cc(C(=O)N3CCN(c4ccc(C(C)=O)cc4)CC3)ccc21` it is 736 s; for `Brc1ccc(-c2ccc(CNc3ncn[nH]3)o2)cc1` it is 708 s.
In turn, `Cc1cc(C)cc(NC(=O)Cn2nc(N3CCC(C)CC3)c3ccccc3c2=O)c1` displayed an RP-LC retention time of 1100 s.
The figure for `COc1ccc(-n2c(=O)c(C(=O)NCc3ccco3)c(O)c3cccnc32)cc1` is 1050 s; for `Cc1ccc(S(=O)(=O)n2nc(-c3cccc(C)c3)nc2N)cc1` it is 957 s; for `CC(C)(C)c1noc(-c2ccnc(-n3cnc(C(=O)N4CCc5ccccc5C4)c3)c2)n1` it is 1080 s.
Turning to `O=C(O)COc1ccc(OCCNC[C@H](O)COc2ccccc2)cc1`, the RP-LC retention time turned out to be 679 s.
`COc1ccc(CNC(=O)C2CC(=O)N(CCc3c[nH]c4ccc(Cl)cc34)C2)cc1` (centres undefined) gave an RP-LC retention time of 834 s.
`COC(=O)c1ccc(CSc2nnc(-c3cn(C)nc3OC)n2C)cc1` had an RP-LC retention time of 641 s.
The figure for `CCOC(=O)c1oc2ccccc2c1NC(=O)c1ccc([N+](=O)[O-])s1` is 1040 s.
Compound `O=C(Nc1ccc2nc(-c3ccccc3)cc(N3CCOCC3)c2c1)NC1CCCCC1` showed an RP-LC retention time of 732 s.
Consider `COc1ccc(NC(=O)N2CCN(c3cnn4c(C)nnc4c3)CC2)cc1`, for which the RP-LC retention time came to 594 s.
In turn, `CCOC(=O)CCNC(=O)N1CCCN(C)c2ccccc21` yielded an RP-LC retention time of 623 s.
`O=C(NC1CCCCCC1)c1nnn(Cc2ccccc2)c1-n1cccc1`: the RP-LC retention time was determined as 1120 s.
The figure for `CC(C)(C)NC(=O)CCc1c(-c2ccc(Br)cc2)nc2ccccn12` is 681 s; for `O=C(Cn1c(=O)c(CCC(=O)NC2CC2)nc2ccccc21)NCc1ccccc1Br` it is 736 s; for `CC1Oc2ccc(-c3csc(NC(=O)c4cccnc4)n3)cc2NC1=O` (centres undefined) it is 704 s.
Compound `CCCc1cc(C2CCCN2C(=O)Nc2ccccc2C)no1` (centres undefined) yielded an RP-LC retention time of 902 s.
Then `COc1ccc(NC(=O)C2c3ccccc3C(=O)N3CCc4cc(OC)c(OC)cc4C23)c(OC)c1` (centres undefined), with 814 s; and `CC(C)(C)CC(=O)N1CCc2nc(-c3ccccc3)ncc2C1`, with 934 s.
As for `Cc1nc(-n2cccc2)sc1C(=O)N1CCN(C(=O)c2ccco2)CC1`, the RP-LC retention time turned out to be 713 s.
Take `CCOC(=O)C1CCN(C(=O)C2CCCN(c3nccc(C)n3)C2)CC1` (centres undefined): the RP-LC retention time was 698 s.
`O=C(Nc1cnc(-c2cccc(Cl)c2)nc1)C1CCC1` came in with an RP-LC retention time of 1020 s.
The compound `COc1cccc(/C=C/C(=O)NC2(c3nc(C(C)C)no3)CCCCC2)c1` returned an RP-LC retention time of 1050 s.
`O=C(c1ccc(-c2cccnc2)nc1)N1CCN(c2ccccc2Cl)CC1` displayed an RP-LC retention time of 764 s.
For `Cn1c(N2CCCN(C(=O)c3ccc(F)c(F)c3)CC2)cc(=O)n(C)c1=O`, the RP-LC retention time was 660 s.
`Cc1ccc(CNC(=O)C2CCCN(c3nnc4ccc(Cl)cn34)C2)o1` (centres undefined) showed an RP-LC retention time of 740 s.
The compound `Cc1ccccc1-c1cn2ccn(-c3ccc4c(c3)CCC4)c(=O)c2n1` had an RP-LC retention time of 962 s.
For `CC(Cc1ccco1)NC(=O)C1CCN(Cc2cc3ccccc3n2Cc2cccc(Cl)c2)CC1` (centres undefined), the RP-LC retention time came to 821 s.
The figure for `CCOC(=O)C1CCN(c2cc3c(cc2NC(=O)CC(C)C)n(C)c(=O)c(=O)n3C)CC1` is 822 s; for `COc1ccc(C(=O)N2CC(N3CC(C(=O)N4CCCC4)CC3=O)C2)cc1F` (centres undefined) it is 639 s.
The compound `CC1=C(N2CC2)C(=O)C(CO)=C(N2CC2)C1=O` gave an RP-LC retention time of 585 s.
In turn, `O=C(Cc1csc(NC(=O)C2CCCC2)n1)NC1CCN(Cc2ccccc2)CC1` had an RP-LC retention time of 569 s.
In turn, `CCc1ccccc1N(C)S(=O)(=O)c1ccccc1-c1nc(-c2ccccc2)no1` gave an RP-LC retention time of 1270 s.
Then `CCOc1ccc(NC(=O)C2CCCN(c3ncnc4c3nc3n4CCCCC3)C2)cc1` (centres undefined), with 732 s.
`Cc1ccc(-c2coc3cc4oc(=O)c(CC(=O)N5CCC(C(N)=O)CC5)c(C)c4cc23)cc1` returned an RP-LC retention time of 813 s.
Then `COCCNC(=O)N1CCC(OC2CCN(Cc3ccccc3)CC2)CC1`, with 571 s; and `O=C(NCc1ccnc(N2CCSCC2)c1)Nc1ccc(Cl)cc1`, with 649 s.
Take `CCOc1ccc(-n2c(N3CCN(CC)CC3)nc3cc(C(=O)OC)ccc3c2=O)cc1`: the RP-LC retention time came out at 683 s.
For the compound `CCc1noc(NC(C)=O)c1-c1ccc(C)c(S(=O)(=O)N2CCN(C(=O)c3ccco3)CC2)c1`, the RP-LC retention time was determined as 758 s.
`C[C@]12CCC(=O)C(=O)C1CC[C@@H]1[C@@H]2CC[C@]2(C)C(=O)CC[C@@H]12` (some centres undefined) showed an RP-LC retention time of 1030 s.
Then `COc1cc(C2C(=O)N(C3CCCC3)CC(=O)N2Cc2ccco2)ccc1OC(C)C` (centres undefined), with 915 s; and `CC1CN2C=NC(N3CCN(C(=O)Nc4ccc5c(c4)CCC5)CC3)=CC2=N1` (centres undefined), with 655 s.

The record behind these values is the METLIN SMRT retention time set (Domingo-Almenara et al. 2019).
